Reference: patent publication US20110201688A1, “N,N'-DI-P-BROMOPHENYL GUANIDINE TREATMENT FOR STROKE AT DELAYED TIMEPOINTS” (UNIVERSITY OF SOUTH FLORIDA, priority 2008, published 2011)

How the values were obtained:
cortical neurons [1] = experiment: Inhibition of [Ca2+]i increases evoked by chemical ischemia (sodium azide/glucose deprivation) in cortical neurons, Fura-2; type: cell-based, rat; conditions: for More effective than DTG in depressing Ca2+ dysregulation: ischemia-induced [Ca2+]i, relative to DTG set to 1
Method: Concentration-response relationship for p-Br-DPG inhibition of [Ca^2+]i increases evoked by chemical ischemia (4 mM azide, 0 glucose). […] Dashed line is fit to the data in FIG. 7, shoing p-Br-DPhG inhibition of acidosis-induced Ca^2+ elevations and is included for comparison.
(§1) The effects of sigma receptors on ischemia-induced changes in intracellular calcium concentrations were studied in cultured cortical neurons from embryonic (E18) rats. Dams were euthanatized by decapitation, uterus removed, and embryos dissected out and placed in isotonic buffer containing 137 mM NaCl, 5 mM KCl, 0.2 mM NaH2PO4, 0.2 mM KH2PO4, 5.5 mM glucose, 6 mM sucrose (pH 7.4 with NaOH). Cortex were excised and minced, and tissue digested in isotonic buffer containing 0.25% trypsin/EDTA for 10 min at 37° C. and added to 3× volume of high glucose culture media (Dulbecco's Modified Eagle Media; Invitrogen, Inc., Carlsbad, Calif.), 10% (v/v) fetal calf serum, 100 U/ml penicillin and 0.1 mg/ml streptomycin. Cells were counted on a hemocytometer, plated (0.5×10^6 cells) on 18 mm coverslips coated with poly-1-lysine, and incubated at 37° C. under a 95% air, 5% CO2 atmosphere. After 24 hr the media was replaced with Neurobasal (Invitrogen, Inc., Carlsbad, Calif.) medium supplemented with B27 (Invitrogen, Inc., Carlsbad, Calif.) and 0.5 mM 1-glutamine to limit astrocyte proliferation in the cultures. Cells were used for studies after 14-21 days in culture.
The in vitro NaN3 chemical ischemia disrupts cell metabolism, which ultimately results in plasma membrane dysfunction and intracellular Ca^2+ dysregulation. Fura-2 dye was used to measure changes in intracellular Ca^2+ in the cells. Ischemia was induced in the absence or presence of the drugs to test directly the cell response to sigma receptor activation under ischemic conditions. […] The level of resulting [Ca^2+]i inhibition was compared to DTG, which was set to a relative [Ca^2+]i, level of 1 as indicated by the dashed line. […]

cortical neurons [2] = experiment: Inhibition of [Ca2+]i increases evoked by acidosis (pH 6.0) in cortical neurons; type: cell-based, rat; conditions: acidosis pH 6.0, cortical neurons; for Kd: n>50, read-out: Kd (Langmuir-Hill fit) for inhibition of [Ca2+]i increases evoked by acidosis
Method: Concentration-response relationship for p-Br-DPG and DTG inhibition of [Ca^2+]i increases evoked by acidosis (pH 6.0).
as §1
(Ringel F, et al. Lactacidosis-induced glial cell swelling depends on extracellular Ca^2+. Neurosci Lett. 2006 May 8; 398(3):306-9. Epub 2006 Feb. 15). p-Br-DPG was characterized against DTG to determine the ability to inhibit [Ca^2+]i dysregulation in cortical neurons. Cells were administered the indicated amounts of either p-BrDPhG or DTG, followed by cellular [Ca^2+]i dysregulation stimulation by acidosis (pH 6.0). […] A dashed line is superimposed, showing the acidosis results from FIG. 7 for comparison.

Microglia = experiment: Microglial migration to ATP in Boyden chamber; type: cell-based; conditions: 4 hrs at 37° C.
Method: FIG. 10 is a graph showing microglial migration for 4 hrs at 37° C. Control media or 100 μM ATP were used in the absence and presence of DTG or p-Br-DPG (labeled BDTG). Asterisks indicate a significant difference between ATP (p<0.001, n=5) and ATP+BDTG 20 μM (p<0.01, n=5) from DMEM. Significance was determined by one-way ANOVA followed by post-hoc Bonferroni tests.
Microglial migration was assayed using a Boyden chamber fitted with a polycarbonate membrane containing 8 μm pores. Microglia (500,000 cells) were placed in the upper chamber and control media or 100 μM ATP were added in the absence and presence of DTG, or various indicated concentrations of p-Br-DPG to the bottom chamber. Microglia were allowed to migrate for 4 hrs at 37° C., and were subsequently stained with DAPI and counted.

MCAO rats = conditions: cited from earlier work
Sprague-Dawley rats = experiment: Permanent middle cerebral artery occlusion (MCAO), infarct volume by Fluoro-Jade staining; type: in vivo, rat; conditions: sacrificed at 96 h
Method: FIG. 9 is a graph showing the data for rats after surgery for permanent middle cerebral arterial occlusion. Rats were treated as indicated at 24, 48, and 72 h and sacrificed at 96 hours. Brain sections were stained with Fluoro-Jade to determine infarct volumes.
11 adult male Sprague-Dawley rats (Harlan, Indianapolis, Ind.) weighing 300 to 350 g were housed in a climate controlled room with water and laboratory chow available ad libidum. Sprague-Dawley rats (300-350 g) were randomly assigned to 1 of 3 groups: MCAO (n=4); MCAO and DTG (n=3); or MCAO and p-Br-DPG (n=4). MCAO surgery was performed as previously reported by Vendrame et al. (Vendrame, et al., Infusion of human umbilical cord blood cells in a rat model of stroke dose-dependently rescues behavioral deficits and reduces infarct volume. Stroke. 2004 October; 35(10):2390-5. Epub 2004 Aug. 19) and originally described by Longa et al. (Longa, et al., Reversible middle cerebral artery occlusion without craniectomy in rats. Stroke. 1989 January; 20(1):84-9). […]
Rats were treated as indicated at 24, 48, and 72 hours after MCAO with vehicle (MCAO), 7.5 mg/kg N,N′-di-p-bromophenyl guanidine (p-Br-DPG) or 7.5 mg/kg 1,3 di-o-tolylguanidine (DTG). […] Stroke-induced damage was quantified using the Fluoro-Jade fluorescence to determine infarct volumes.

[3] = higher p-Br-DPG concentrations or DTG with 100 μM ATP

NC(=Nc1ccccc1)Nc1ccccc1 [DPhG]
More effective than DTG in depressing Ca2+ dysregulation (cortical neurons [1]): ~25%

Cc1ccccc1NC(=N)Nc1ccccc1C [DTG, N,N′-di-o-tolyl guanidine, reference compound]
Kd (cortical neurons [2]): 109 µM | Microglia migration (Microglia; [3]): inhibited the migration | Reduction of infarct size (MCAO rats; MCAO rats (Ajmo 2006)): more than 80% | Reduction of stroke damage (MCAO rats; administered 24 hours after experimental stroke): 85%

N=C(Nc1ccc(Br)cc1)Nc1ccc(Br)cc1 [p-Br-DPG, N,N′-di-p-bromophenyl guanidine]
Effect against [Ca2+]i dysregulation compared with DTG (cortical neurons [2]): significantly higher effect against [Ca^2+]i than DTG | Kd (cortical neurons [2]): 13.5 µM | Kd (cortical neurons [1]; 4 mM azide, 0 glucose, cortical neurons, n>50, read-out: Kd (Langmuir-Hill fit) for inhibition of [Ca2+]i increases evoked by chemical ischemia): 2600 nM | More effective than DTG in depressing Ca2+ dysregulation (cortical neurons [1]): ~25% | Infarct volume relative to the MCAO group (Sprague-Dawley rats; 7.5 mg/kg at 24, 48 and 72 h after MCAO, p<0.001): significantly reduced infarct volume | Efficacy on infarct volume compared with DTG treatment (Sprague-Dawley rats; 7.5 mg/kg each at 24, 48 and 72 h after MCAO): slightly more efficacious than DTG treatment | Microglia migration (Microglia; 20 μM with 100 μM ATP, compared to DMEM): significantly increased microglia migration | Microglia migration (Microglia; [3]): inhibited the migration
